Data on 3 compounds can be found in publication PMC12081905, “Ortho-functionalization of a ^211At-labeled aryl compound provides stabilization of the C-At bond against oxidative dehalogenation” (Scientific Reports, 2025).

Data set [1] concerns human liver microsomes (CYP450). The data set is described as follows: Stability assay in human liver microsomal medium with NADPH regeneration system. Conditions: 37 °C, radio-HPLC. In kind it is in vitro ADME. The text has this: (§1) Since oxidation by CYP450 enzymes is a plausible cause of oxidative deastatination within targeted cells or in the liver, we also assessed the stability of our compounds against liver microsomes. Liver microsomes contain CYP450, a family of oxidase enzymes that were used in our assay, adapted from Schmitt et al.[14] and using a nicotinamide adenine dinucleotide phosphate (NADPH) redox regeneration system to regenerate the redox properties of CYP450. For comparison, we performed the stability assay in rat and human liver microsomes (Fig. 7).
(§2) ^211At was produced at the Arronax cyclotron facility using the ^209Bi(α,2n) ^211At reaction and recovered from the irradiated target in chloroform using a dry distillation protocol adapted from the procedure previously reported by Lindegren et al.[26] […] To quantify free astatine that remains trapped in the HPLC system during the elution, 50 µL of an aqueous sodium sulfite solution (10 mg mL^−1) were injected after each analysis to release free astatine from the HPLC system with the flow rate set at 1.20 mL/min with the following gradient: t = 0: 90% A, 10% B; t = 2–6 min: 100% B with A = H2O with 0.05% TFA and B = CH3CN with 0.05% TFA. The non-radioactive iodinated compounds were analyzed using this HPLC system and their retention times were used as references for identification of their astatinated analogues. […]

Data set [2] concerns rat liver microsomes (CYP450). The data set is described as follows: Stability assay in rat liver microsomal medium with NADPH regeneration system. It counts as in vitro ADME. The conditions noted are these: 37 °C, radio-HPLC.
From the text: as §1, §2

Data set [3] can be described thus: Stability assay in oxidizing/acidic medium (chemical oxidation assay, KMnO4). Conditions: radio-HPLC. It counts as physicochemical. How it is done: Stability of ^211At-labeled compounds in oxidizing media. […] Adapted from Teze et al.[10], it consists in an incubation of the ^211At-labeled product in 50 mM acetate buffer (pH = 4.7) containing a 1 mM potassium permanganate solution (Fig. 5).
as §2, with “al.[26] Before use, the ^211At solution was reduced to dryness under a gentle stream of nitrogen.” for “al.[26]”
Each peak is then integrated, providing each peak area (noted A(A), A(B) etc…) to quantify the species present. […]

Details of data set [4]: method as in PMID 28566709. Conditions: DFT, resulting oxidized compounds; cited from earlier work.

With `CCNC(=O)c1cccc([211At])c1` [[^211At]AEB, 3-[^211At]astato-N-ethylbenzamide], the “starting compound / metabolites after 20 h incubation in human microsomes” value in data set [1] is “practically no presence of the starting compound”. Moreover, in data set [2], the “starting compound / metabolites after 20 h incubation in rat microsomes” value was “practically no presence of the starting compound”. For the same compound, the “fate of the starting 211At-compound in oxidizing medium” value in data set [3] (50 mM acetate buffer pH 4.7, 1 mM KMnO4, up to 20 h) is on record as “almost complete degradation”.

`CCOC(=O)c1cccc([211At])c1` [compound 1, ethyl 3-[^211At]astatobenzoate]: the “bond dissociation energy of the carbon-halogen bond” value in data set [4] is recorded as 28.2 kcal mol^−1. With `OCc1ccccc1[211At]` [compound 2, (2-[^211At]astatophenyl)methanol], in data set [3] (50 mM acetate buffer pH 4.7, 1 mM KMnO4, room temperature, 20 h, n = 3), the “free astatine (release of astatine) after 20 h incubation in oxidizing medium” value came out at 12%.
